Consider four compounds from patent US20120004180A1, “METHOD OF PRODUCING A NOVEL OPIOID PEPTIDE” (priority 2008, published 2012).

The test system of data set [1] is pain. Conditions: experiments on animals; intrathecal application in rats; cited from earlier work.
For data set [2], the system named is physical dependence. Conditions: compared with morphine; cited from earlier work.
The subject of data set [3] is thermal pain. The data set can be described thus: Thermal pain sensitivity after subarachnoid administration via cannula. In kind it is in vivo. The conditions noted are these: rats, dose of 5 mg. An excerpt: Two days prior to the experiments, rats were implanted with cannulae into the subarachnoid cavity. During the experiment, the analgesic activity was examined by administering the peptide analogue (N′-Tyrosyl-D-alanyl-glycyl-phenylalanyl, N″-alpha-methyl-4-(2-methylpropyl) benzenoacetyl-D-tryptophanyl)-hydrazide.

For data set [4], the system named is acute pain in mice with inflammation. The data set can be described thus: Tail immersion in water heated to 55° C. in murine melanoma metastasis model with inflammation. In kind it is in vivo. The conditions noted are these: two weeks after murine melanoma cells into the hind limb, intraperitoneal injection 30 mg/kg. As to the method:
In an animal metastasis model, inflammation was induced by administering around a million cells of murine melanoma into the hind limb. After two days, a progressing inflammation was observed, elicited by tumour take. After two weeks of tumour development, the analgesic activity of (N′-Tyrosyl-D-alanyl-glycyl-phenylalanyl, N″-salicyl-glycyl-D-tryptophanyl)-hydrazide was examined against acute pain caused by tail immersion in water heated to 55° C.

For data set [5] the test system is unchanged. Briefly: Tail immersion in water at 55° C. in mice with Freund's adjuvant-induced inflammation. In kind it is in vivo. The conditions noted are these: one week after Freund's adjuvant into the limb, intravenous injection 20 mg/kg. As to the method: Inflammation was induced in mice through application of Freund's adjuvant into the limb. A progressing inflammation was observed after two days. After a week, the analgesic effects on acute pain of the peptide analogue HCl.Tyr-D-Ala-Gly-Phe-NHNH-(CBz-D-Trp-) were examined via the immersion of the tail in water at 55° C.

With `C[C@@H](NC(=O)[C@@H](N)Cc1ccc(O)cc1)C(=O)NCC(=O)N[C@@H](Cc1ccccc1)C(=O)NNC(=O)[C@H](Cc1ccccc1)NC(=O)CNC(=O)[C@@H](C)NC(=O)[C@@H](N)Cc1ccc(O)cc1` [biphalin], the analgesic activity entry in data set [1] is recorded as “significant analgesic activity”. The “habit-forming activity (physical dependence)” value in data set [2] is “much lesser habit-forming activity”.
On to “(N′-Tyrosyl-D-alanyl-glycyl-phenylalanyl, N″-alpha-methyl-4-(2-methylpropyl) benzenoacetyl-D-tryptophanyl)-hydrazide [Example III]”, for which, in data set [3], the “duration of elimination of sensitivity to thermal pain” value came to 1 h and the “sensitivity to thermal pain” value is reported as “complete elimination”.
With “(N′-Tyrosyl-D-alanyl-glycyl-phenylalanyl, N″-salicyl-glycyl-D-tryptophanyl)-hydrazide [Example II]”, the “pain reaction (analgesic activity against acute pain, tail immersion)” value in data set [4] is “completely mitigated”.
As to “(N′-tyrosyl-D-alanyl-glycyl-phenylalanyl, N″-benzoxycarbonyl-D-tryptophanyl) hydrazide [Example I]”, the “pain reaction (analgesic effect on acute pain, tail immersion)” value in data set [5] is given as “completely mitigated”.
